In ChEMBL document CHEMBL1159256, “Acetylcholinesterase inhibition by territrem B derivatives” (J Nat Prod, 1995):
Calls of active or inactive are those of the source. The calls are words filed in the database; no cut-off is given here.

Assays:
[1] = target: Acetylcholinesterase (Electrophorus electricus) (UniProt O42275); experiment: (§1) Inhibition of electric eel AChE by Ellman's method
Acetylcholinesterase = Acetylcholinesterase (Electrophorus electricus, UniProt O42275); experiment: as §1; details: read-out: I50
Chain of Acetylcholinesterase (O42275 whole entry): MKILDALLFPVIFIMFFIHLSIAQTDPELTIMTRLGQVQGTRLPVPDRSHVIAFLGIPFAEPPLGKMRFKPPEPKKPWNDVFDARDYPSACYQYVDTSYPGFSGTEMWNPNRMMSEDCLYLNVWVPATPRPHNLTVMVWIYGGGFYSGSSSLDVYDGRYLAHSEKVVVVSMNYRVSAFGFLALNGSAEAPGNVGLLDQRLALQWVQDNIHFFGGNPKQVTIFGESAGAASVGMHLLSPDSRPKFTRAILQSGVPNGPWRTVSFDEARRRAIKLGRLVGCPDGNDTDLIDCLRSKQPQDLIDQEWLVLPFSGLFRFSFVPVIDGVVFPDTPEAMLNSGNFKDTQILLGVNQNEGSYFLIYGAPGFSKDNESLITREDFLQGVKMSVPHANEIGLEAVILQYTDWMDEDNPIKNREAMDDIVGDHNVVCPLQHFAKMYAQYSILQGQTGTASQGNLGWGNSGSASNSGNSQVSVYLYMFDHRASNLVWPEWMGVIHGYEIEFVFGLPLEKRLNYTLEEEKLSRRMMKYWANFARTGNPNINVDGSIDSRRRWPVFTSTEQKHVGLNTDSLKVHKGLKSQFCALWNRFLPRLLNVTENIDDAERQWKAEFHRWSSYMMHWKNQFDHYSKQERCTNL

Chain of Acetylcholinesterase (Electrophorus electricus) (O42275 24-633 limits assumed): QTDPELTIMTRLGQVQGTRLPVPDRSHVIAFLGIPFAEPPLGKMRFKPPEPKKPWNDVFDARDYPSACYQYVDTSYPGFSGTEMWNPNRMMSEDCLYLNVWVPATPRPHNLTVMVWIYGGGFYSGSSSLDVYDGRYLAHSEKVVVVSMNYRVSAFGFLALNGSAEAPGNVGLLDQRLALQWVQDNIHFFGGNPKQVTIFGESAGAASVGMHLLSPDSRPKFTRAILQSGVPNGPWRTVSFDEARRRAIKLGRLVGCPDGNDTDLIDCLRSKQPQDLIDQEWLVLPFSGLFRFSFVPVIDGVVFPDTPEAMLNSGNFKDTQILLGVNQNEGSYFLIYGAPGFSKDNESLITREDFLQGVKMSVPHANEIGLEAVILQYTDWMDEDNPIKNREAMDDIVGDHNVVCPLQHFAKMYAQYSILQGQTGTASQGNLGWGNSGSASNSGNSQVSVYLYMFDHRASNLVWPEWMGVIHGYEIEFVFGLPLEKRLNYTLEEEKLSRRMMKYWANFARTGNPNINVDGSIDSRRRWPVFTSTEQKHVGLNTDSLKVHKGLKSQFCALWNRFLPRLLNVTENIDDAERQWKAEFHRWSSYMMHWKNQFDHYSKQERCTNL

SMILES | Activity [1] | IC50 (Acetylcholinesterase) | inhibition ([1]; concentration not given here)
COc1cc(CCC2=C(C(=O)O)C[C@]3(O)[C@@]4(C)C(=O)CCC(C)(C)[C@]4(O)CC[C@@]3(C)O2)cc(OC)c1OC | inactive | – | –
COc1cc(-c2cc3c(c(=O)o2)C[C@]2(O)[C@@]4(C)[C@H](O)C=CC(C)(C)[C@]4(O)CC[C@@]2(C)O3)cc(OC)c1OC [1-DIHYDROTERRITREM B] | – | 79000 nM | –
COc1cc(-c2cc3c(c(=O)o2)C[C@]2(O)[C@@]4(C)C(=O)CCC(C)(C)[C@]4(O)CC[C@@]2(C)O3)cc(OC)c1OC [2,3-DIHYDROTERRITREM B] | – | 2200 nM | –
COc1cc(-c2cc3c(c(=O)o2)C[C@]2(O)[C@@]4(C)C(=O)[C@H]5O[C@H]5C(C)(C)[C@]4(O)CC[C@@]2(C)O3)cc(OC)c1OC [2,3-EPOXYTERRITREM B] | – | 170 nM | –
COc1cc(-c2cc3c(c(=O)o2)C[C@]2(O)[C@@]4(C)C(=O)C=C[C@](C)(CI)[C@]4(O)CC[C@@]2(C)O3)cc(OC)c1OC [4BETA-IODOMETHYL-4BETA-DEMETHYL-TERRITREM B] | – | 290 nM | –
COc1cc(-c2cc3c(c(=O)o2)C[C@]2(O)[C@@]4(C)C(=O)C=CC(C)(C)[C@]4(O)CC[C@@]2(C)O3)cc(OC)c1OC [TERRITREM B] | – | 260 nM | 50%
